Read-outs that look alike come from different tables or passages of the source.
Assays:
K562 cells = assay: In situ ultra violet irradiation of dosed K562 cells, IC50; type: cell-based, human; conditions: read-out: IC50 K562 (Nm)
Experimental: Previously, the isomerisation study had been performed ex situ, i.e. in a photochemical reactor. However, it was necessary to illustrate the potential of the process as a real therapy by repeating the isomerization in the presence of the caner cells i.e. in situ. […] Following irradiation, the cells were incubated in the normal way and the IC50 values were determined.
These consisted of i) exposing K562 cells only (i.e. cells which were not dosed with any potential drug candidate) to ultra violet light, ii) preventing K562 cells dosed with drug candidate from being exposed to ultra violet light, and iii) preventing K562 cells only (i.e. cells which were not dosed with any potential drug candidate) from being exposed to ultra violet light. […]

[1] = test system: K562 human myelogeneous leukaemia cell line; assay: Cytotoxicity/growth inhibition assay (MTT), K562; type: cell-based
Source text: In addition to the cell lines described in this paper, other established human cell lines (K562, HUVEC, H460, BE, H529, and HT29) were used in the cytotoxicity/growth inhibition assay. • (1) Inhibition of tubulin assembly. The figure quoted is the concentration required to reduce assembly of tubulin by 50%. Tubulin assembly is monitored by light scatter/absorption at 350 nm.
(§1) (2) Competition for the colchicine binding site on tubulin. The figure quoted represents the % of ^3H-colchicine bound following co-incubation of test compound and ^3H-cochicine with isolated tubulin. Where ester pro-drugs were used the experiments were carried out in the presence and absence of porcine liver esterase. • (3) Cytotoxicity/growth inhibition assay. This was carried out by the MTT assay. • (4) Permeability (shape-change) assay in endothelial cells. […] This involved the diffusion of a fluorescently labelled dextran through a barrier of endothelial cells (HUVEC) grown to confluence on a porous membrane. The effect of agents to alter the shape of these cells results in an increase in the permeability of the cells to the dye. The figure represents the increase in permeability over control cultures when drug is added (30 minutes, 1 mM.). • (5) Experiments to study the anti-vascular effects of these agents were carried out as described previously by our group. […] The anti-vascular effects of the agents were monitored by either positron emission tomography (PET) or by histologogical examination following treatment of mice bearing T50:80 murine breast tumours, or H460 human lung tumours. • (6) Anti-tumour efficacy of agents was determined in xenografts of H460 human lung cancer. Animals (n=5) were trated either with 5 daily injections and tumour size measured with time following treatment. • (7) The pharmacokinetic profile of agents was determined in mice following injection with drug. Blood was taken at various times following treatment and analysed by HPLC with UV detection. […] (AND(P)H:quinone oxidoreductace, EC 1.6.99.2). DT-diaphorase is an enzyme over-expressed in a number of human tumours. […] This two-electron reducing enzyme can be used to selectively activate prodrugs within cancers which over-express the enzyme.

tubulin [2] = assay: MA IC50 (Tables 12-26, abbreviation not defined); type: biochemical
tubulin [3] = assay: CD IC50 (Tables 12-26, abbreviation not defined); type: binding
[4] = test system: P388 murine leukaemia cell line; assay: Cytotoxicity/growth inhibition assay (MTT), P388; type: cell-based
Experimental: as §1

K562 = K562 cell cycle analysis; type: cell-based, human; conditions: K562
[5] = Homo sapiens, K562, MTT, read-out: K562 IC50
[6] = of cells with DNA content = 2 n or >2 n
[7] = Table 22, read-out: MTT (K582) IC50
[8] = Homo sapiens, K562, Table 22, read-out: MTT (K582) IC50

| IC50 (tubulin [2]) | IC50 (tubulin [3]) | Molecule | IC50 [1, 5] | further results |
| --- | --- | --- | --- | --- |
|  |  | 4-[2′-methoxy-4′-({2″-methoxy-5″-[(E)-2′″-3′″,4′″,5′″-trimethoxyphenyl)ethenyl]phenoxy}methyl)-5′-nitrophenoxy]butanoic acid(potassium salt) [Compound E-12] |  | IC50 (K562 cells; in situ UV 0 mins (Table 10)): > 50 µM; IC50 (K562 cells; in situ UV 0.5 mins (Table 10)): 1.01 µM; IC50 (K562 cells; in situ UV 1 mins (Table 10)): 0.41 µM; IC50 (K562 cells; in situ UV 1.5 mins (Table 10)): 0.3 µM; IC50 (K562 cells; in situ UV 2 mins (Table 10)): 0.16 µM; IC50 (K562 cells; in situ UV 3 mins (Table 10)): 0.05 µM; IC50 (K562 cells; in situ UV 4 mins (Table 10)): 0.058 µM; IC50 (K562 cells; in situ UV 5 mins (Table 10)): 0.046 µM; IC50 (K562 cells; in situ UV 7.5 mins (Table 10)): 0.022 µM; IC50 (K562 cells; in situ UV 10 mins (Table 10)): 0.016 µM; IC50 (K562 cells; in situ UV 12.5 mins (Table 10)): 0.012 µM; IC50 (K562 cells; in situ UV 15 mins (Table 10)): 0.01 µM; IC50 (K562 cells; in situ UV 17.5 mins (Table 10)): 0.009 µM; IC50 (K562 cells; in situ UV 20 mins (Table 10)): 0.008 µM |
| > 10 µM | > 25 µM | CCOc1cc(/C=C/c2ccc(OC)c(Cl)c2)cc(OCC)c1OCC [Compound 258] |  | IC50 ([1]; MTT, read-out: K562 IC50): 7 µM |
| > 10 µM | > 25 µM | COc1ccc(/C=C/c2ccc(C)c(C)c2)cc1 [Compound 142] |  | IC50 ([4]; MTT): 20.5 µM; IC50 ([1]; MTT, read-out: K562 IC50): > 50 µM |
| > 10 µM | > 25 µM | COc1ccc(/C=C/c2cc(OC)c(OC)c(O[Si](C)(C)C(C)(C)C)c2)cc1F [Compound 241] |  | IC50 ([1]; MTT, read-out: K562 IC50): 10 µM |
|  |  | COc1ccc(/C=C(\C)c2cc(OC)c(OC)c(OC)c2)cc1 [Compound 23b, E-1-(4′-Methoxyphenyl)-2-(3″,4″,5″-trimethoxyphenyl)propene] | 0.79 µM |  |
| > 10 µM | > 25 µM | COc1ccc(C=Cc2ccc(C)c(C)c2)cc1[N+](=O)[O-] [Compound 139] | 1.8 µM | IC50 ([4]; Mus musculus, P388, MTT): 20 µM |
| > 10 µM | > 25 µM | CCOc1cc(/C=C/c2ccc(OC)c(Br)c2)cc(OCC)c1OCC [Compound 248] |  | IC50 ([1]; MTT, read-out: K562 IC50): > 50 µM |
|  |  | COc1ccc(/C=C(/C)c2cc(OC)c(OC)c(OC)c2)cc1 [Compound 23a, Z-1-(4′-Methoxyphenyl)-2-(3″,4″,5″-trimethoxyphenyl)propene] | 0.1 µM |  |
| > 10 µM | > 25 µM | CCOc1cc(C=Cc2ccc(OC)c(Br)c2)cc(OCC)c1OCC [Compound 247] | 0.6 µM |  |
| > 10 µM | > 25 µM | Cc1ccc(/C=C/c2ccc(C)c([N+](=O)[O-])c2)cc1C [Compound 152] |  | IC50 ([4]; MTT): > 50 µM; IC50 ([1]; MTT, read-out: K562 IC50): > 50 µM |
| > 10 µM | > 25 µM | Cc1ccc(C=Cc2ccc(C)c([N+](=O)[O-])c2)cc1C [Compound 151] | 1.5 µM | IC50 ([4]; Mus musculus, P388, MTT): 9.7 µM |
|  |  | COc1ccc(/C(C)=C\c2cc(OC)c(OC)c(OC)c2)cc1O [Compound 20, Z-1-(3′,4′,5′-trimethoxyphenyl)-2-(3″-hydroxy-4″-methoxyphenyl)propene] | 1.8 µM | IC50 ([4]; Mus musculus, P388, MTT): 7 µM |
| > 10 µM | > 25 µM | CCOc1cc(C=Cc2ccc(OC)c(Br)c2)cc(OCC)c1OCC [Compound 255] |  |  |
| > 10 µM | > 25 µM | CCOc1cc(C=Cc2ccc(OC)cc2)cc(OCC)c1OCC [Compound 249] | 0.5 µM |  |
| > 10 µM | > 25 µM | Cc1ccc(C=Cc2ccc(C)c(C)c2)cc1 [Compound 137] | 3.4 µM | IC50 ([4]; Mus musculus, P388, MTT): 2 µM |
|  |  | COc1ccc(/C=C(/C)c2cc(OC)c(OC)c(OC)c2)cc1O[Si](C)(C)C(C)(C)C [Compound 17a, Z-(3′-t-butyldimethylsilyloxy-4′-methoxyphenyl)-2-(3″,4″,5″-trimethoxyphenyl)propene] | 0.2 µM |  |
|  |  | COc1ccc(/C=C(\C)c2cc(OC)c(OC)c(OC)c2)cc1O[Si](C)(C)C(C)(C)C [Compound 17b, E-1-(3′-t-Butyldimethylsilyloxy-4′-methoxyphenyl)-2-(3″,4″,5″-trimethoxyphenyl)propene] | 6 µM |  |
| > 10 µM | > 25 µM | CCOc1cc(/C=C/c2ccc(OC)c(O)c2)cc(OCC)c1OCC [Compound 254] |  | IC50 ([1]; MTT, read-out: K562 IC50): 0.2 µM |
| > 10 µM | > 25 µM | CCOc1cc(/C=C/c2ccc(OC)cc2)cc(OCC)c1OCC [Compound 250] |  | IC50 ([1]; MTT, read-out: K562 IC50): > 50 µM |
|  |  | COc1ccc(/C=C\c2cc(C)c(C)c(C)c2)cc1Oc1c(F)c(F)nc(F)c1F [Compound 27, (Z)-1-(3′,4′,5′-trimethylphenyl)-2-(3″-(2′″,3′″,5′″,6′″-tetrafluoropyridoxy)-4″-methoxyphenyl)ethene] | 9 µM |  |
| > 10 µM | > 25 µM | CCOc1cc(C=Cc2ccc(OC)c(Cl)c2)cc(OCC)c1OCC [Compound 257] | 0.45 µM |  |
| > 10 µM | > 25 µM | COc1ccc(C=C(C(=O)O)c2cc(OC)c(OC)c(OC)c2)cc1O [Compound 80] |  | IC50 [1, 8]: > 50 µM |
| > 10 µM | > 25 µM | COC(=O)C(=Cc1ccc(OC)c(O)c1)c1cc(OC)c(OC)c(OC)c1 [Compound 81] |  | IC50 [1, 8]: > 50 µM |

| Molecule | IC50 (tubulin [2]) | IC50 (tubulin [3]) | IC50 [1, 5] | further results |
| --- | --- | --- | --- | --- |
| COc1ccc(/C=C\c2cc(O)c(OC)c(OC)c2)cc1F [Compound 242] | 1.25 µM | 9 µM | 0.02 µM | % of cells with DNA content <2 n (K562): 29%; % of cells in G0–G1 (K562; [6]): 7%; % of cells in G2-M (K562; [6]): 71%; % of cells in S phase (K562; [6]): 22% |
| COc1ccc(/C=C/c2cc(OC)c(OC)c(OC)c2)cc1Br [Compound 96] | > 10 µM | > 25 µM |  | IC50 ([1]; MTT, read-out: K562 IC50): 7.83 µM |
| COc1cc(/C=C\c2ccc(C)c(C)c2)cc(OC)c1OC [Compound 103] | 2 µM | > 25 µM | 0.04 µM | IC50 ([4]; Mus musculus, P388, MTT): 0.1 µM |
| COc1ccc(/C=C\c2cc(OC)c(OC)c(O[Si](C)(C)C(C)(C)C)c2)cc1F [Compound 240] | > 10 µM | > 25 µM | 0.5 µM |  |
| CC/C(=C\c1ccc(OC)c(O[Si](C)(C)C(C)(C)C)c1)c1cc(OC)c(OC)c(OC)c1 [Compound 218] | > 10 µM | > 25 µM |  | IC50 [1, 7]: 3.4 µM |
| COc1ccc(C=C(C)c2cc(OC)c(OC)c(OC)c2)cc1O[Si](C)(C)C(C)(C)C [Compound 208] | 1.5 µM | > 25 µM |  | IC50 [1, 8]: 0.2 µM |
| CCC(=Cc1ccc(OC)c(O[Si](C)(C)C(C)(C)C)c1)c1cc(OC)c(OC)c(OC)c1 [Compound 217] | > 10 µM | > 25 µM |  | IC50 [1, 8]: 0.5 µM |
| COc1ccc(/C=C(\C)c2cc(OC)c(OC)c(OC)c2)cc1 [Compound 214] | > 10 µM | > 25 µM |  | IC50 [1, 7]: 0.8 µM |
| COc1ccc(/C=C(\C)c2cc(OC)c(OC)c(OC)c2)cc1O[Si](C)(C)C(C)(C)C [Compound 209] | > 10 µM | > 25 µM |  | IC50 [1, 7]: 6 µM |
| COc1ccc(/C=C/c2cc(O)c(OC)c(OC)c2)cc1F [Compound 243] | > 10 µM | > 25 µM |  | IC50 ([1]; MTT, read-out: K562 IC50): 5 µM |
| CC/C(=C\c1ccc(OC)c(O)c1)c1cc(OC)c(OC)c(OC)c1 [Compound 220] | > 10 µM | > 25 µM |  | IC50 [1, 7]: 4 µM |
| COc1ccc(/C=C(\C)c2cc(OC)c(OC)c(OC)c2)cc1O [Compound 211] | > 10 µM | > 25 µM | 0.7 µM | IC50 [1, 8]: 0.7 µM |
| CCOc1cc(/C=C/c2ccc(OC)c(F)c2)cc(OCC)c1OCC [Compound 252] | > 10 µM | > 25 µM |  | IC50 ([1]; MTT, read-out: K562 IC50): > 50 µM |
| COc1ccc(C=C(CO)c2cc(OC)c(OC)c(OC)c2)cc1O [Compound 82] | > 10 µM | > 25 µM |  | IC50 [1, 8]: > 50 µM |
